Data from ChEMBL document CHEMBL3797124, “Synthesis of azepino[4,5-b]indol-4-ones via MCR/free radical cyclization and in vitro-in silico studies as 5-Ht₆R ligands” (Bioorg Med Chem Lett, 2016).

molecular target: 5-hydroxytryptamine receptor 6 (Rattus norvegicus) (UniProt P31388); test: Displacement of [3H]-LSD from rat 5-Ht6 receptor expressed in HEK cells at 10 uM after 60 mins by liquid scintillation counting; format: cell-based; settings: HEK293
Sequence (P31388 whole entry): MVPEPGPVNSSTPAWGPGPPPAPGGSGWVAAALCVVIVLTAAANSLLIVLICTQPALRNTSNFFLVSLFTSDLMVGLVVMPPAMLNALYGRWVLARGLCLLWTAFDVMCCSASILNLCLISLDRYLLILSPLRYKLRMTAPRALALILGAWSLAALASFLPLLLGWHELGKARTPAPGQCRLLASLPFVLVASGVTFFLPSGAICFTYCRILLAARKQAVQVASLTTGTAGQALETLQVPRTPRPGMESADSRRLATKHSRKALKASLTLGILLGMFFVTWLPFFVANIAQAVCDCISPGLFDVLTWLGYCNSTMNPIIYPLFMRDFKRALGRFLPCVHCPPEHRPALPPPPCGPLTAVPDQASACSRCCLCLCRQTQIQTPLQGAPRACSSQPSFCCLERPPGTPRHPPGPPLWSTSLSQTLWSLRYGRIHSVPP

Structure (SMILES)	inhibition [%]	log(%)
CC(C)(C)NC(=O)C(c1ccc(Br)cc1)N1CCc2c([nH]c3ccccc23)CC1=O (stereo not drawn)	66	1.82
CC(C)(C)n1nnnc1C(C1CCCCC1)N1CCc2c([nH]c3ccccc23)CC1=O (stereo not drawn)	2	0.3
CC(C)(C)NC(=O)C(C1CCCCC1)N1CCc2c([nH]c3ccccc23)CC1=O (stereo not drawn)	10	1
CC(C)(C)NC(=O)C(c1ccc2c(c1)OCO2)N1CCc2c([nH]c3ccccc23)CC1=O (stereo not drawn)	7	0.85
Cc1cccc(C)c1NC(=O)C(C1CCCCC1)N1CCc2c([nH]c3ccccc23)CC1=O (stereo not drawn)	7	0.85
COc1cccc(C(C(=O)NC(C)(C)C)N2CCc3c([nH]c4ccccc34)CC2=O)c1OC (stereo not drawn)	–	1.98
CSc1ccc2c(c1)C(N1CCN(C)CC1)Cc1ccccc1S2 (stereo not drawn)	100	2
O=C(NC1CCCCC1)C(c1ccc(Cl)cc1)N1CCc2c([nH]c3ccccc23)CC1=O (stereo not drawn)	15	1.18
CN(C)c1ccc(C(C(=O)NC(C)(C)C)N2CCc3c([nH]c4ccccc34)CC2=O)cc1 (stereo not drawn)	16	1.2

Other lines, results leading:

inhibition [%]	log(%)	Structure (SMILES)
57	1.76	CC(C)(C)n1nnnc1C(c1ccc(Br)cc1)N1CCc2c([nH]c3ccccc23)CC1=O (stereo not drawn)
21	1.32	Cc1cccc(C)c1NC(=O)C(c1ccc(Cl)cc1)N1CCc2c([nH]c3ccccc23)CC1=O (stereo not drawn)
12	1.08	CC(C)(C)n1nnnc1C(c1ccc2c(c1)OCO2)N1CCc2c([nH]c3ccccc23)CC1=O (stereo not drawn)
3	0.48	Cc1cccc(C)c1-n1nnnc1C(C1CCCCC1)N1CCc2c([nH]c3ccccc23)CC1=O (stereo not drawn)
1	0	CN(C)c1ccc(C(c2nnnn2C(C)(C)C)N2CCc3c([nH]c4ccccc34)CC2=O)cc1 (stereo not drawn)
42	1.62	CC(C)(C)NC(=O)C(c1ccc(Cl)cc1)N1CCc2c([nH]c3ccccc23)CC1=O (stereo not drawn)
16	1.2	COc1cccc(C(c2nnnn2C(C)(C)C)N2CCc3c([nH]c4ccccc34)CC2=O)c1OC (stereo not drawn)
17	1.23	O=C1Cc2[nH]c3ccccc3c2CCN1C(c1ccc(Cl)cc1)c1nnnn1C1CCCCC1 (stereo not drawn)
19	1.28	Cc1cccc(C)c1-n1nnnc1C(c1ccc(Cl)cc1)N1CCc2c([nH]c3ccccc23)CC1=O (stereo not drawn)
41	1.04	CC(C)(C)n1nnnc1C(c1ccc(Cl)cc1)N1CCc2c([nH]c3ccccc23)CC1=O (stereo not drawn)

molecular target: 5-hydroxytryptamine receptor 6 (Rattus norvegicus, UniProt P31388); test: Displacement of [3H]-LSD from rat 5-Ht6 receptor expressed in HEK cells after 60 mins by liquid scintillation counting; format: cell-based, HEK293; settings: not given
Sequence (P31388 whole entry): as above

Ki [nM]	Structure (SMILES)
211	COc1cccc(C(C(=O)NC(C)(C)C)N2CCc3c([nH]c4ccccc34)CC2=O)c1OC (stereo not drawn)
